Test results reported in patent US11919901B2 (Syndax Pharmaceuticals, Inc., priority 2021, dated 2024).

Experiments:
hERG = hERG (Homo sapiens (Human), UniProt Q12809); assay: Patch clamp assay (hERG tail currents, whole-cell); assay type: cell-based; settings: hERG transfected HEK 293 cells; for hERG % Remaining 10 μM: 10 μM compound; for hERG % Remaining 30 μM: 30 μM compound
Menin-MLL = Menin-MLL (Homo sapiens (Human), UniProt O00255); assay: Determination of binding constants (Ki) to Menin-MLL (HTRF); settings: HTRF, 0.25 nM H-FL-Menin, 3.2 nM FITC-MLL-4-43, 24 hr incubation; for Ki: read-out: Menin-MLL Ki HTRF Assay: Ki
Chain of Menin-MLL (O00255 whole entry): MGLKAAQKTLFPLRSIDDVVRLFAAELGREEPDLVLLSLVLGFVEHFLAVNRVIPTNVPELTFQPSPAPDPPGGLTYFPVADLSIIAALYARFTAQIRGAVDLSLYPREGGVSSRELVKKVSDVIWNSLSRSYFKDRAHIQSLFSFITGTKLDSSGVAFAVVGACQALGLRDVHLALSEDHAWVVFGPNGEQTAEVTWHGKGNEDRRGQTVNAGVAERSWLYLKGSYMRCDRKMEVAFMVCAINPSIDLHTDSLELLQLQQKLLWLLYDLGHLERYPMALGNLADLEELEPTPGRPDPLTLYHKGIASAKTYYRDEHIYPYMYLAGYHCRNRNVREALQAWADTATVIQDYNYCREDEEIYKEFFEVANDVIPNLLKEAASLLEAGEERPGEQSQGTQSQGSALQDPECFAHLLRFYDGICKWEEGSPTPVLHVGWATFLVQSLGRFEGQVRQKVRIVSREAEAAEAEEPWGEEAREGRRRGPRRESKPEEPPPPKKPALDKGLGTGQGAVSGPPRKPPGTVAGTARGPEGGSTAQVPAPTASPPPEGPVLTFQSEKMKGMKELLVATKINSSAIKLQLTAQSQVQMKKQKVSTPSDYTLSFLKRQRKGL

Chain of hERG (Q12809 whole entry): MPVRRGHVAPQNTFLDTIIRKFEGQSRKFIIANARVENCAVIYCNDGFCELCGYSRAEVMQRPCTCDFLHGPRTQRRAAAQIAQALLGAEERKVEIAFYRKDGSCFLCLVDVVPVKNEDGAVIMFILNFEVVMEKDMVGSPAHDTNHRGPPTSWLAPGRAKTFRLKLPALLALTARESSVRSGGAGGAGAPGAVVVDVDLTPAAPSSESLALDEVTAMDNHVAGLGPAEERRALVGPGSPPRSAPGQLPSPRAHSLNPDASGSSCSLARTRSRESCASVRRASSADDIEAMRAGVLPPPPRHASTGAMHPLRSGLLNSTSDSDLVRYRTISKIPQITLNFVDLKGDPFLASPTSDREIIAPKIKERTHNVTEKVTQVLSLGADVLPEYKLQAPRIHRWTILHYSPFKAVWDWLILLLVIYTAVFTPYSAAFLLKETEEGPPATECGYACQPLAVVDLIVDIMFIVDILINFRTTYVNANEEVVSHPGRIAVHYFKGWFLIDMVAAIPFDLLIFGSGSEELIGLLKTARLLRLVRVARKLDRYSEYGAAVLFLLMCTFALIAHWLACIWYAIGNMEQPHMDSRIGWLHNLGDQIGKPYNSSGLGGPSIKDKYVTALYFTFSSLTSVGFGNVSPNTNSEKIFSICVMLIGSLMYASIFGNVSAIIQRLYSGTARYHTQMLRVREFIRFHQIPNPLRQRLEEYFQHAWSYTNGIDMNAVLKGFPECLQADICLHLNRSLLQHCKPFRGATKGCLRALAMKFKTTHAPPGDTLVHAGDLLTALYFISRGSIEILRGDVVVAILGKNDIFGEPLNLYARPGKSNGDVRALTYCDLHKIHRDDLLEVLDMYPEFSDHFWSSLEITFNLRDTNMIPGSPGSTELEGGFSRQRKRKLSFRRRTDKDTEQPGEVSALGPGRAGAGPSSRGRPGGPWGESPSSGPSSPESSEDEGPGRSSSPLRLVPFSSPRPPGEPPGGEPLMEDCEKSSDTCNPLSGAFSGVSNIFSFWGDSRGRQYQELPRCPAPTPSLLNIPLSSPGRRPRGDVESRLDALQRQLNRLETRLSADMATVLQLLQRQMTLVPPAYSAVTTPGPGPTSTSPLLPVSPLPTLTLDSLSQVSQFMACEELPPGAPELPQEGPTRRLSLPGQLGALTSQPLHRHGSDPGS

| SMILES | hERG % Remaining 10 μM (hERG) | hERG % Remaining 30 μM (hERG) | IC50 (hERG) | EC50 (Menin-MLL) | Ki (Menin-MLL) |
| --- | --- | --- | --- | --- | --- |
| CCN(C(=O)c1cc(F)ccc1Oc1cncnc1N1CC2(CCN(C[C@@H]3CC[C@@H](NS(=O)(=O)c4cnn(C)c4)CO3)CC2)C1)C(C)C [Compound 68, N-Ethyl-5-fluoro-N-isopropyl-2-((4-(7-(((2S,5R)-5-((1-methyl-1H-pyrazole)-4-sulfonamido)tetrahydro-2H-pyran-2-yl)methyl)-2,7-diazaspiro[3.5]nonan-2-yl)pyrimidin-5-yl)oxy)benzamide] | +++ (“+++” means ≥66%) | +++ (“+++” means ≥66%) | ≥ 50000 nM | < 50 nM | < 1 nM |
| CC(C)N(CC(F)F)C(=O)c1cc(F)ccc1Oc1cncnc1N1CC2(CCN(C[C@@H]3CC[C@@H](NS(=O)(=O)NCC4CC4)CO3)CC2)C1 [Compound 148, 2-((4-(7-(((2S,5R)-5-((N-(Cyclopropylmethyl)sulfamoyl)amino)tetrahydro-2H-pyran-2-yl)methyl)-2,7-diazaspiro[3.5]nonan-2-yl)pyrimidin-5-yl)oxy)-N-(2,2-difluoroethyl)-5-fluoro-N-isopropylbenzamide] |  | +++ (“+++” means ≥66%) |  |  | < 1 nM |
| CC(C)N(C(=O)c1cc(F)ccc1Oc1cncnc1N1CC2(CCN(C[C@@H]3CC[C@@H](NS(=O)(=O)N4CCC4)CO3)CC2)C1)C1COC1 [Compound 248, 2-((4-(7-(((2S,5R)-5-(Azetidine-1-sulfonamido)tetrahydro-2H-pyran-2-yl)methyl)-2,7-diazaspiro[3.5]nonan-2-yl)pyrimidin-5-yl)oxy)-5-fluoro-N-isopropyl-N-(oxetan-3-yl)benzamide] |  | +++ (“+++” means ≥66%) |  |  | < 1 nM |
| CCN(C(=O)c1cc(F)ccc1Oc1cncnc1N1CC2(CCN(C[C@@H]3CC[C@@H](NS(=O)(=O)CC)CO3)CC2)C1)C(C)C [Compound 2, N-ethyl-2-((4-(7-(((2S,5R)-5-(ethylsulfonamido)tetrahydro-2H-pyran-2-yl)methyl)-2,7-diazaspiro[3.5]nonan-2-yl)pyrimidin-5-yl)oxy)-5-fluoro-N-isopropylbenzamide] | +++ (“+++” means ≥66%) | +++ (“+++” means ≥66%) |  | < 50 nM | < 1 nM |
| CCN(C(=O)c1cc(F)ccc1Oc1cncnc1N1CC2(CCN(C[C@@H]3CC[C@@H](NS(=O)(=O)c4c[nH]c(=O)cc4C)CO3)CC2)C1)C(C)C [Compound 75, N-Ethyl-5-fluoro-N-isopropyl-2-((4-(7-(((2S,5R)-5-((4-methyl-6-oxo-1,6-dihydropyridine)-3-sulfonamido)tetrahydro-2H-pyran-2-yl)methyl)-2,7-diazaspiro[3.5]nonan-2-yl)pyrimidin-5-yl)oxy)benzamide] |  | +++ (“+++” means ≥66%) |  |  | < 1 nM |
| CCN(C(=O)c1cc(F)ccc1Oc1cncnc1N1CC2(CCN(C[C@@H]3CC[C@@H](NS(=O)(=O)c4c[nH]c(=O)c(C)c4)CO3)CC2)C1)C(C)C [Compound 218, N-Ethyl-5-fluoro-N-isopropyl-2-((4-(7-(((2S,5R)-5-((5-methyl-6-oxo-1,6-dihydropyridine)-3-sulfonamido)tetrahydro-2H-pyran-2-yl)methyl)-2,7-diazaspiro[3.5]nonan-2-yl)pyrimidin-5-yl)oxy)benzamide] |  | + (“+” means <33%) |  |  | < 1 nM |
| CC(C)N(C)C(=O)c1cc(F)ccc1Oc1cncnc1N1CC2(CCN(C[C@@H]3CC[C@@H](NS(=O)(=O)N4CCC4)CO3)CC2)C1 [Compound 138, 2-((4-(7-(((2S,5R)-5-(Azetidine-1-sulfonamido)tetrahydro-2H-pyran-2-yl)methyl)-2,7-diazaspiro[3.5]nonan-2-yl)pyrimidin-5-yl)oxy)-5-fluoro-N-isopropyl-N-methylbenzamide] |  | +++ (“+++” means ≥66%) |  |  | < 1 nM |
| Cc1nn(C)cc1S(=O)(=O)N[C@@H]1CC[C@@H](CN2CCC3(CC2)CN(c2ncncc2Oc2ccc(F)cc2C(=O)N(CC(F)F)C(C)C)C3)OC1 [Compound 105, N-(2,2-Difluoroethyl)-2-((4-(7-(((2S,5R)-5-((1,3-dimethyl-1H-pyrazole)-4-sulfonamido)tetrahydro-2H-pyran-2-yl)methyl)-2,7-diazaspiro[3.5]nonan-2-yl)pyrimidin-5-yl)oxy)-5-fluoro-N-isopropylbenzamide] |  | +++ (“+++” means ≥66%) |  |  | < 1 nM |
| CC(C)N(CC(F)F)C(=O)c1cc(F)ccc1Oc1cncnc1N1CC2(CCN(C[C@@H]3CC[C@@H](NS(=O)(=O)c4ccn(C)n4)CO3)CC2)C1 [Compound 103, N-(2,2-Difluoroethyl)-5-fluoro-N-isopropyl-2-((4-(7-(((2S,5R)-5-((1-methyl-1H-pyrazole)-3-sulfonamido)tetrahydro-2H-pyran-2-yl)methyl)-2,7-diazaspiro[3.5]nonan-2-yl)pyrimidin-5-yl)oxy)benzamide] |  | +++ (“+++” means ≥66%) |  |  | < 1 nM |
| CCN(C(=O)c1cc(F)ccc1Oc1cncnc1N1CC2(CCN(C[C@@H]3CC[C@@H](NS(=O)(=O)c4ccccc4Cl)CO3)CC2)C1)C(C)C [Compound 59, 2-((4-(7-(((2S,5R)-5-((2-Chlorophenyl)sulfonamido)tetrahydro-2H-pyran-2-yl)methyl)-2,7-diazaspiro[3.5]nonan-2-yl)pyrimidin-5-yl)oxy)-N-ethyl-5-fluoro-N-isopropylbenzamide] | + (“+” means <33%) | + (“+” means <33%) |  | < 50 nM | < 1 nM |
| CC(C)N(C(=O)c1cc(F)ccc1Oc1cncnc1N1CC2(CCN(C[C@@H]3CC[C@@H](NS(=O)(=O)c4cnn(C(F)F)c4)CO3)CC2)C1)C(C)C [Compound 85, 2-((4-(7-(((2S,5R)-5-((1-(Difluoromethyl)-1H-pyrazole)-4-sulfonamido)tetrahydro-2H-pyran-2-yl)methyl)-2,7-diazaspiro[3.5]nonan-2-yl)pyrimidin-5-yl)oxy)-5-fluoro-N,N-diisopropylbenzamide] | ++ (“++” means ≥33% and <66%) | + (“+” means <33%) |  |  | < 1 nM |
| Cc1ncc(S(=O)(=O)N[C@@H]2CC[C@@H](CN3CCC4(CC3)CN(c3ncncc3Oc3ccc(F)cc3C(=O)N(C(C)C)C(C)C)C4)OC2)o1 [Compound 80, 5-Fluoro-N,N-diisopropyl-2-((4-(7-(((2S,5R)-5-((2-methyloxazole)-5-sulfonamido)tetrahydro-2H-pyran-2-yl)methyl)-2,7-diazaspiro[3.5]nonan-2-yl)pyrimidin-5-yl)oxy)benzamide] | ++ (“++” means ≥33% and <66%) | + (“+” means <33%) |  |  | < 1 nM |
| CCN(C(=O)c1cc(F)ccc1Oc1cncnc1N1CC2(CCN(C[C@@H]3CC[C@@H](NS(=O)(=O)N4CCOCC4)CO3)CC2)C1)C(C)C [Compound 64, N-Ethyl-5-fluoro-N-isopropyl-2-((4-(7-(((2S,5R)-5-(morpholine-4-sulfonamido)tetrahydro-2H-pyran-2-yl)methyl)-2,7-diazaspiro[3.5]nonan-2-yl)pyrimidin-5-yl)oxy)benzamide] | +++ (“+++” means ≥66%) | ++ (“++” means ≥33% and <66%) |  | < 50 nM | < 1 nM |
| CC(C)N(C(=O)c1cc(F)ccc1Oc1cncnc1N1CC2(CCN(C[C@@H]3CC[C@@H](NS(N)(=O)=O)CO3)CC2)C1)C(C)C [Compound 90, 5-Fluoro-N,N-diisopropyl-2-((4-(7-(((2S,5R)-5-(sulfamoylamino)tetrahydro-2H-pyran-2-yl)methyl)-2,7-diazaspiro[3.5]nonan-2-yl)pyrimidin-5-yl)oxy)benzamide] | +++ (“+++” means ≥66%) | +++ (“+++” means ≥66%) |  |  | < 1 nM |
| CCN(CC)S(=O)(=O)N[C@@H]1CC[C@@H](CN2CCC3(CC2)CN(c2ncncc2Oc2ccc(F)cc2C(=O)N(C(C)C)C2CC(F)(F)C2)C3)OC1 [Compound 114, 2-((4-(7-(((2S,5R)-5-((N,N-Diethylsulfamoyl)amino)tetrahydro-2H-pyran-2-yl)methyl)-2,7-diazaspiro[3.5]nonan-2-yl)pyrimidin-5-yl)oxy)-N-(3,3-difluorocyclobutyl)-5-fluoro-N-isopropylbenzamide] | + (“+” means <33%) | + (“+” means <33%) |  | < 50 nM | < 1 nM |
| CC(C)N(CC(F)F)C(=O)c1cc(F)ccc1Oc1cncnc1N1CC2(CCN(C[C@@H]3CC[C@@H](NS(=O)(=O)N(C)CCO)CO3)CC2)C1 [Compound 239, N-(2,2-difluoroethyl)-5-fluoro-2-((4-(7-(((2S,5R)-5-((N-(2-hydroxyethyl)-N-methylsulfamoyl)amino)tetrahydro-2H-pyran-2-yl)methyl)-2,7-diazaspiro[3.5]nonan-2-yl)pyrimidin-5-yl)oxy)-N-isopropylbenzamide] |  | +++ (“+++” means ≥66%) |  |  | < 1 nM |
| CCS(=O)(=O)N[C@@H]1CC[C@@H](CN2CCC3(CC2)CN(c2ncncc2Oc2ccc(F)cc2C(=O)N(C(C)C)C2CC2)C3)OC1 [Compound 19, N-cyclopropyl-2-((4-(7-(((2S,5R)-5-(ethylsulfonamido)tetrahydro-2H-pyran-2-yl)methyl)-2,7-diazaspiro[3.5]nonan-2-yl)pyrimidin-5-yl)oxy)-5-fluoro-N-isopropylbenzamide] | +++ (“+++” means ≥66%) | ++ (“++” means ≥33% and <66%) |  | < 50 nM | < 1 nM |
| CC(C)N(C(=O)c1cc(F)ccc1Oc1cncnc1N1CC2(CCN(C[C@@H]3CC[C@@H](NS(=O)(=O)N4CCC[C@H]4C)CO3)CC2)C1)C(C)C [Compound 203, 5-Fluoro-N,N-diisopropyl-2-((4-(7-(((2S,5R)-5-(((R)-2-methylpyrrolidine)-1-sulfonamido)tetrahydro-2H-pyran-2-yl)methyl)-2,7-diazaspiro[3.5]nonan-2-yl)pyrimidin-5-yl)oxy)benzamide] |  | + (“+” means <33%) |  |  | < 1 nM |
